The assay concerns BDF1 mice, Lymphoma 8 ip, survival T/C. Description: NCI In Vivo Anticancer Drug Screen. Data for tumor model Lymphoma 8 (intraperitoneal) in B6D2F1 (BDF1) mice. The conditions noted are these: endpoint: survival time, mean or median, higher = longer survival. As to the method:
The antitumor activity of compounds was measured in mice bearing transplantable tumors. Survival or tumor size were measured and the results are expressed as the measurement made in the treated group (T) divided by the measurement made in the vehicle treated control group (C). The tumor model used in this assay is Lymphoma 8 (intraperitoneal) in B6D2F1 (BDF1) mice

The mark [1] stands for this setting: dose: 8.0 mg/kg/injection, schedule: Q01DX010 (ip), vehicle: saline.
The mark [2] stands for this setting: dose: 50.0 mg/kg/injection, schedule: Q01DX010 (ip), vehicle: saline.
[3] abbreviates: dose: 100.0 mg/kg/injection, schedule: Q01DX010 (ip), vehicle: saline.
The mark [4] stands for this setting: dose: 200.0 mg/kg/injection, schedule: Q01DX010 (ip), vehicle: saline.
Setting [5] is: dose: 0.5 mg/kg/injection, schedule: Q01DX015 (ip), vehicle: carboxymethylcellulose (CMC).
Setting [6] is: dose: 1.0 mg/kg/injection, schedule: Q01DX015 (ip), vehicle: carboxymethylcellulose (CMC).
Where [7] appears, read: dose: 20.0 mg/kg/injection, schedule: Q01DX010 (ip), vehicle: saline.
Setting [8] is: dose: 40.0 mg/kg/injection, schedule: Q01DX010 (ip), vehicle: saline.
The mark [9] stands for this setting: dose: 80.0 mg/kg/injection, schedule: Q01DX010 (ip), vehicle: saline.
The mark [10] stands for this setting: dose: 12.5 mg/kg/injection, schedule: Q01DX010 (ip), vehicle: saline.
The mark [11] stands for this setting: dose: 25.0 mg/kg/injection, schedule: Q01DX010 (ip), vehicle: saline.
Where [12] appears, read: dose: 25.0 mg/kg/injection, schedule: Q01DX008 (ip), vehicle: saline.
The mark [13] stands for this setting: dose: 100.0 mg/kg/injection, schedule: Q01DX008 (ip), vehicle: saline.

The results in this text go back to PubChem BioAssay AID242 (DTP/NCI, 2004).

The structures appear in SMILES notation. “And” between values parts separate entries of the source, which are not always exact repeats. Equal entries are not always repeated. Inconclusive results and toxic doses are left out.

Consider `Nc1nc(SCc2ccccc2)c2[nH]cnc2n1`, for which the T/C was 91 % of control and 107 % of control under setting [1]; 100 % of control and 103 % of control (dose: 16.0 mg/kg/injection, schedule: Q01DX010 (ip), vehicle: saline); 100 % of control and 103 % of control (dose: 32.0 mg/kg/injection, schedule: Q01DX010 (ip), vehicle: saline); 91 % of control (dose: 64.0 mg/kg/injection, schedule: Q01DX010 (ip), vehicle: saline).
With `CC(C)CNS(=O)(=O)c1ncnc2nc[nH]c12`, the T/C by setting is: (dose: 18.8 mg/kg/injection, schedule: Q01DX015 (ip), vehicle: carboxymethylcellulose (CMC)) 114 % of control; (dose: 37.5 mg/kg/injection, schedule: Q01DX015 (ip), vehicle: carboxymethylcellulose (CMC)) 99 % of control; (dose: 75.0 mg/kg/injection, schedule: Q01DX015 (ip), vehicle: carboxymethylcellulose (CMC)) 96 % of control.
Consider `CCN(CC)c1ccc2cc3ccc(=[N+](CC)CC)cc-3oc2c1`, for which the T/C (dose: 1.0 mg/kg/injection, schedule: Q01DX010 (ip), vehicle: saline) was 96 % of control.
For `COc1ccc(C2NCCS2)cc1` (configuration not stated), the T/C is 103 % of control under setting [2]; 100 % of control under setting [3]; 106 % of control under setting [4]; 100 % of control (dose: 400.0 mg/kg/injection, schedule: Q01DX010 (ip), vehicle: saline).
For `Cc1c(O)ccc(=O)n1O`, the T/C is 100 % of control (dose: 49.0 mg/kg/injection, schedule: Q01DX015 (ip), vehicle: other); 97 % of control (dose: 73.0 mg/kg/injection, schedule: Q01DX015 (ip), vehicle: other); 105 % of control (dose: 110.0 mg/kg/injection, schedule: Q01DX015 (ip), vehicle: other).
As to `O=NN(CCCl)C(=O)NCCCl`, for the setting “dose: 2.64 mg/kg/injection, schedule: Q01DX015 (ip), vehicle: saline”, the T/C is 90 % of control.
Consider `CN(C)c1nc(N(C)C)nc(N(C)C)n1`, for which the T/C is, setting by setting: (dose: 18.8 mg/kg/injection, schedule: Q01DX010 (ip), vehicle: saline) 104 % of control and 122 % of control; (dose: 37.5 mg/kg/injection, schedule: Q01DX010 (ip), vehicle: saline) 95 % of control and 113 % of control; (dose: 75.0 mg/kg/injection, schedule: Q01DX010 (ip), vehicle: saline) 100 % of control; (dose: 150.0 mg/kg/injection, schedule: Q01DX010 (ip), vehicle: saline) 100 % of control.
For the compound `CC(=O)NC1=C(N2CC2)C(=O)C(NC(C)=O)=C(N2CC2)C1=O`, the T/C by setting is: under setting [5], 174 % of control; under setting [6], 150 % of control.
On to `OCC1OC(n2cnc3c(=S)nc[nH]c32)C(O)C1O` (configuration not stated), for which the T/C runs as follows: under setting [7], 104 % of control and 112 % of control; under setting [8], 100 % of control and 109 % of control and 112 % of control; under setting [9], 105 % of control and 118 % of control and 121 % of control; (dose: 160.0 mg/kg/injection, schedule: Q01DX010 (ip), vehicle: saline) 93 % of control and 118 % of control.
Take `CCN(CC)CCNc1ccc(C)c2sc3ccccc3c(=O)c12`: the T/C reads like this: under setting [2], 122 % of control; under setting [3], 109 % of control.
With `NC(=O)c1cn(C2OC(CO)C(O)C2O)c2ncnc(N)c12` (configuration not stated), the T/C runs as follows: under setting [5], 106 % of control; under setting [6], 116 % of control; (dose: 2.0 mg/kg/injection, schedule: Q01DX015 (ip), vehicle: carboxymethylcellulose (CMC)) 94 % of control.
On to `N=[N+]=CC(=O)OCC(N)C(=O)O` (configuration not stated), for which the T/C (dose: 3.13 mg/kg/injection, schedule: Q01DX010 (ip), vehicle: saline) is 116 % of control; the T/C under setting [10] was 150 % of control; the T/C under setting [11] is 87 % of control and 91 % of control.
On to `COc1ccccc1CNCCO`, for which the T/C under setting [2] was 103 % of control, the T/C under setting [3] was 103 % of control and the T/C under setting [4] was 93 % of control.
Take `CC(=O)Nc1ccc2nc3ccc(NC(C)=O)cc3[n+](-c3ccccc3)c2c1`: the T/C is 107 % of control under setting [11], 89 % of control under setting [2] and 92 % of control under setting [3].
`CC(=O)OCC1OC(n2cnc3c(=S)nc[nH]c32)C(OC(C)=O)C1OC(C)=O` (configuration not stated): the T/C is 101 % of control (dose: 25.0 mg/kg/injection, schedule: Q01DX015 (ip), vehicle: carboxymethylcellulose (CMC)); 109 % of control (dose: 50.0 mg/kg/injection, schedule: Q01DX015 (ip), vehicle: carboxymethylcellulose (CMC)); 104 % of control (dose: 100.0 mg/kg/injection, schedule: Q01DX015 (ip), vehicle: carboxymethylcellulose (CMC)).
In the case of `CN(N=O)C(=O)NC(C=O)C(O)C(O)C(O)CO` (configuration not stated), the T/C is 96 % of control under setting [10]; 115 % of control under setting [12]; 100 % of control under setting [11]; 111 % of control (dose: 50.0 mg/kg/injection, schedule: Q01DX008 (ip), vehicle: saline); 121 % of control under setting [2]; 115 % of control under setting [13]. In addition, under setting [3], the T/C was 121 % of control.
Consider `Nc1nc(=S)c2ncn(C3OC(CO)C(O)C3O)c2[nH]1` (configuration not stated), for which the T/C is 92 % of control (dose: 4.0 mg/kg/injection, schedule: Q01DX010 (ip), vehicle: saline) and 89 % of control under setting [1].
Regarding `CC(Cl)CN(Cc1cc(O)c(CN(CC(C)Cl)CC(C)Cl)cc1O)CC(C)Cl` (configuration not stated), the T/C is 100 % of control (dose: 62.5 mg/kg/injection, schedule: Q01DX015 (ip), vehicle: carboxymethylcellulose (CMC)); 95 % of control (dose: 125.0 mg/kg/injection, schedule: Q01DX015 (ip), vehicle: carboxymethylcellulose (CMC)); 94 % of control (dose: 250.0 mg/kg/injection, schedule: Q01DX015 (ip), vehicle: carboxymethylcellulose (CMC)); 88 % of control and 91 % of control (dose: 500.0 mg/kg/injection, schedule: Q01DX015 (ip), vehicle: carboxymethylcellulose (CMC)); 90 % of control (dose: 750.0 mg/kg/injection, schedule: Q01DX015 (ip), vehicle: carboxymethylcellulose (CMC)); 90 % of control (dose: 1000.0 mg/kg/injection, schedule: Q01DX015 (ip), vehicle: carboxymethylcellulose (CMC)).
For `CN(N=O)C(=O)N[C@@H](C=O)[C@@H](O)[C@H](O)[C@H](O)CO`, the T/C is 124 % of control (dose: 12.5 mg/kg/injection, schedule: Q01DX008 (im), vehicle: saline); 116 % of control (dose: 12.5 mg/kg/injection, schedule: Q01DX008 (ip), vehicle: saline); 97 % of control (dose: 12.5 mg/kg/injection, schedule: Q01DX008 (iv), vehicle: saline); 116 % of control (dose: 12.5 mg/kg/injection, schedule: Q01DX008 (sc), vehicle: saline); 115 % of control under setting [12]; 106 % of control (dose: 25.0 mg/kg/injection, schedule: Q01DX008 (iv), vehicle: saline). For the same compound, the T/C is 124 % of control (dose: 25.0 mg/kg/injection, schedule: Q01DX008 (sc), vehicle: saline); 107 % of control (dose: 50.0 mg/kg/injection, schedule: Q01DX008 (iv), vehicle: saline); 86 % of control (dose: 100.0 mg/kg/injection, schedule: Q01DX008 (im), vehicle: saline); 96 % of control under setting [13]; 106 % of control (dose: 100.0 mg/kg/injection, schedule: Q01DX008 (iv), vehicle: saline); 100 % of control (dose: 100.0 mg/kg/injection, schedule: Q01DX Z (oral), vehicle: saline). The T/C (dose: 200.0 mg/kg/injection, schedule: Q01DX Z (oral), vehicle: saline) was 100 % of control; the T/C (dose: 400.0 mg/kg/injection, schedule: Q01DX Z (oral), vehicle: saline) is 117 % of control; the T/C (dose: 800.0 mg/kg/injection, schedule: Q01DX Z (oral), vehicle: saline) was 97 % of control.
As for `O=c1[nH]c(=O)n(C2CC(O)C(CO)O2)cc1F` (configuration not stated), the T/C reads like this: (dose: 10.0 mg/kg/injection, schedule: Q01DX010 (ip), vehicle: saline) 103 % of control; under setting [7], 100 % of control; under setting [8], 114 % of control; under setting [9], 96 % of control.
